Assay results: PMC8405639, “2-Carba-lysophosphatidic acid is a novel β-lysophosphatidic acid analogue with high potential for lysophosphatidic acid receptor activation and autotaxin inhibition” (Scientific Reports, 2021)
Each block holds one compound with its values, some of them ahead of it.

How the values were obtained:
[1] = system: extracellular signal-regulated kinase (ERK) phosphorylation; assay: Western blot analysis of phosphorylated ERK in HeLa cells; assay type: cell-based; settings: HeLa cells, 10 µM, 5 min, 37 °C, western blot
Method: Figure 3 Effects of 2-carba-lysophosphatidic acid (2carbaLPA) on the phosphorylation of the extracellular signal-regulated kinase (ERK) protein. HeLa cells were preincubated with 10 µM Ki16425 for 30 min at 37 °C and then incubated with 10 µM 2carbaLPA, lysophosphatidic acid (LPA) 18:1, or vehicle for 5 min at 37 °C. Protein levels of phosphorylated ERK, total ERK, and α-tubulin were determined by western blot analysis. The full-length blots are shown in the Supplementary Fig. S2.
HeLa cells were obtained from RIKEN RBC Cell Bank (Tsukuba, Japan). […] Cells were harvested using 0.125 M Tris–HCl (pH 6.8) supplemented with 4% sodium dodecyl sulphate (SDS), 20% glycerol, 10% 2-mercaptoethanol, and 0.01% bromophenol blue. Proteins were separated by SDS–polyacrylamide gel electrophoresis, and the proteins were transferred onto an Immobilon-P Transfer Membrane (Millipore, Burlington, MA, USA). The membrane was incubated with primary antibodies: anti-phospho-ERK (pERK), anti-ERK, and anti-tubulin (all at 1:1,000 dilution, Cell Signaling Technology, Danvers, MA, USA). Next, after washing, the membrane was treated with horseradish peroxidase-conjugated anti-rabbit IgG (1:1000 dilution; Cell Signaling Technology). Immunodetection was performed using an enhanced chemiluminescence system (EzWestLumi plus, ATTO Corporation, Tokyo, Japan) and ImageQuant LAS 4000 (GE healthcare, Buckinghamshire, UK).

[2] = parameters: method as in PMID 32298781; settings: acidic conditions ref 16; cited from earlier work
LPA4 = settings: Ca2+ mobilization, RH7777 and CHO cells, less than 2 min incubation ref 17; cited from earlier work
[3] = cPA analogue stability in the 293A cell medium; assay type: in vitro ADME; settings: 10 µM, 37 °C, 293A (HEK) cell medium
Method: Supplementary Figure S3. Cyclic phosphatidic acid (cPA) analogue stability in the HEK cell medium. Each cPA analogue (final concentration: 10 µM) was incubated with the HEK cell medium for 1 h at 37 °C. The remaining cPA analogue was quantified using liquid chromatography with tandem mass spectrometry (LC-QqQ) and calculated based on the percentage (%) ratio of the final concentration after incubation to the initial concentration. Data are represented as mean ± standard deviation (n = 3 samples).
293A cells were prepared in Hank’s balanced salt solution (HBSS) in 96-well plates. […] After incubation for 1 h at 37 ℃, 80 µL of the supernatant was collected and mixed with 320 µL of acidic methanol, including LPA 17:0 and cPA 17:0 (final concentration: 0.2 µM each; Avanti Polar Lipids, Alabaster, AL, USA).

[4] = Degradation under acidic conditions (artificial gastric juice); assay type: physicochemical; settings: artificial gastric juice pH 1.2, 2 h, 37 °C
Method: 2ccPA was dissolved in artificial gastric juice (2 g NaCl and 12 M HCl 7 mL/1000 mL water at pH 1.2) at a final concentration of 1 mg/mL and incubated for 2 h at 37 °C. Lipid fraction was extracted by 4 volumes of chloroform/methanol (2:1, v/v) and separated by TLC as per previously reported. Extraction from the silica powder of TLC was performed by addition of 8 mL of chloroform/methanol (1:9, v/v) and it was repeated three times. After filtration (0.2 μm Captiva Premium syringe PTFE filter, Agilent Technologies, Santa Clara, CA, USA), the sample was diluted 100-fold with 5 mM ammonium formate in methanol/water (95:5, v/v) and subjected to QqTOF. The 3ccPA degradation compound was also prepared using the same method. The purity of the degradation compound was confirmed to be more than 95% by TLC, QqTOF, and LC-QqQ. Quantification was performed by weighing the purified sample after dried more than 24 h in the desiccator equipped with a vacuum pump.

Compound: CCCCCCCC/C=C\CCCCCCCC(=O)OCC(CO)CP(=O)(O)O (centres unmarked) [2carbaLPA 18:1, 2-carba-lysophosphatidic acid]
- ERK phosphorylation (activation) [1]: activated ERK

Compound: CCCCCCCC/C=C\CCCCCCCC(=O)OCC1COP(=O)(O)C1 (centres unmarked) [2ccPA 18:1, 2-carba-cyclic phosphatidic acid]
- Degradation under acidic conditions [2]: degraded under acidic conditions

- Stability during 1 h [3]: mostly stable
Compound: CCCCCCCC/C=C\CCCCCCCC(=O)OC[C@@H](O)CCP(=O)(O)O [3carba LPA 18:1, 3-carba-lysophosphatidic acid]
- Activity relative to LPA (times weaker), LPA4 (LPA4): more than 10 times

Compound: CCCCCCCC/C=C\CCCCCCCC(=O)OC[C@@H]1CCP(=O)(O)O1 [3ccPA 18:1, 3-carba-cyclic phosphatidic acid]
- Conversion under acidic condition [4]: converted to the corresponding 3-carba-lysophosphatidic acid
